From article PMC12624573, “The antigen presentation landscape of cytokine-stressed human pancreatic islets” (Cell reports, 2025)

What follows are substances tested on CD4+ T cells from PBMC (assay: IFN-γ ELISpot, PBMC-derived in vitro expanded CD4+ T cell lines). Conditions: DR3/DQ Set Peptides; PBMC T cell lines; responding donors/donors tested.
Assay type: cell-based, human
Set-up: key to T cell recognition by PBMC from a T1D donor (mark E) / T cell recognition by PBMC from a T1D donor: E: T cell recognition by PBMC from a T1D donor was tested and verified; see Figure 5

Row | Substance | T1D Donor T cell response | non-T1D Donor T cell response
1 | GKRAIILETRQHRLF [peptide 1] | 0/4 | 0/2
2 | VPIDIDKTKVQNIHPVESA [compound 4] | 0/4 | 0/2
3 | IGEETVITVDTKAAGKGK [peptide 14] | 0/4 | 0/2
4 | GSDDWAYDQGIRYS [compound 21] | 3/4 | 0/2
5 | KQGYQLIEGNQVLHS [compound 20] | 0/4 | 0/2
6 | LNKSINPDEAVAYGAA [peptide 15] | 1/4 | 0/2
7 | GREEITYDTPFKREKS [compound 16] | 3/4 | 0/2
8 | DLNGDLTATREEF [compound 5] | 0/4 | 0/2
9 | FQYIIDNKGIDSDAS [compound 31] | 1/4 | 0/2
10 | TPGNALVVDPKKPFRK [compound 13] | 3/4 | 1/2
11 | WRPSLVPASAENVNKA [compound 23] | 2/4 | 0/2
12 | ETDKEQLTAEAKELRQK [peptide 6] | 1/4 | 0/2
13 | YYNLEKDVKQFRRKDS [peptide 3] | 0/4 | 0/2
14 | AELEDDFKEGYLE [peptide 2] | 2/4 | 1/2
15 | KARFAKQPAYTLVDR [compound 24] | 3/4 | 2/2
16 | ITSIVKDSSAARNGL [peptide 18] | 2/4 | 0/2

Same assay, conditions: HPAP-DR3 Pool Peptides; PBMC T cell lines; responding donors/donors tested

Row | Substance | T1D Donor T cell response | non-T1D Donor T cell response
17 | SANLHGGDLVANYPY [compound 155] | 0/4 | 0/4
18 | APGYLAITKKVAVPY [compound 151] | 0/4 | 1/4
19 | VPIDIDKTKVQNIHPVESA [compound 152] | 0/4 | 0/4

Same assay, conditions: MHC-II peptides; superscript E on the peptide; G = verified with QBL cells

Row | Substance | T cell recognition by PBMC from a T1D donor
20 | QSIEGGAHEGLQHLGP | QS IEGGAHEGL QHLGP ^ E
21 | AVPEEEGPTVVLXPHPSLG [AVPEEEGPTVVLXPHPSLG (X=deamindated N=asp)] | AVPEEEGPTVVLXPHPSLG^E,G (X=deamindated N=asp)

Same assay, conditions: MHC-II peptides; tested and verified, see Figure 5

Row | Substance | T cell recognition by PBMC from a T1D donor (mark E)
22 | AELEDDFKEGYLE | AE LEDDFKEGY LE ^ E
23 | VPGNALVVDPRRPFRK | VPGNA LVVDPRRPF RK ^ E
24 | KARFAKQPAYTLVDR | KAR FAKQPAYTL VDR ^ E
25 | GSDDWAYDQGIRYS | GSDD WAYDQGIRY S ^ E
26 | WRPSLVPASAENVNKA | WRPS LVPASAENV NKA ^ E
27 | QDPELPDKNMFTINRNTGVIS | QDPELPDKNM FTINRNTGV IS ^ E
28 | ITSIVKDSSAARNGL | ITS IVKDSSAAR NGL ^ E
29 | FQYIIDNKGIDSDAS | FQ YIIDNKGID SDAS ^ E
30 | APGY LAITKKVAV PY | E
31 | EDYYVSKSAVVFGG | ED YYVSKSAVV FGG ^ E
32 | ELSAERPLNEQIAEAE | ELSAERP LNEQIAEAE ^ E
33 | GREEITYDTPFKREKS | GREE ITYDTPFKR EKS ^ E
34 | TPGNALVVDPKKPFRK | TPGNA LVVDPKKPF RK ^ E
35 | KRPAIWIDTGIHSRE | KRPA IWIDTGIHS RE ^ E

Same assay, conditions: T1D donors, PBMC-derived lines (Figure 5J)

Row | Substance | Number of donors whose CD4 T cells recognized the peptide (IFN-γ ELISpot)
36 | GREEITYDTPFKREKS [compound 16] | three of the donors
37 | AELEDDFKEGYLE [peptide 2] | three of the donors
38 | KARFAKQPAYTLVDR [compound 24] | three of the donors

Same assay, conditions: control donor LSLP-074; frequencies ∼10-fold lower than for T1D-004 (Figures 5E, 5F, S5B)

Row | Substance | IFN-γ ELISpot response of expanded CD4+ T cells
39 | TPGNALVVDPKKPFRK [compound 13] | responded
40 | AELEDDFKEGYLE [peptide 2] | responded
41 | KARFAKQPAYTLVDR [compound 24] | responded

Same assay, conditions: control donor LSLP-153; line expanded with megapool HPAP-DR3 + SEC-DR3, tested with individual peptides (Figure S5C)

Row | Substance | IFN-γ ELISpot response of expanded CD4 T cells
42 | APGYLAITKKVAVPY [compound 151] | positive response
